Assay results taken from the supplement of paper PMC13380429.
Where a name gives a salt, the structure may show the parent alone.

Columns and labels:
Conditions in all cases: 72 h
U2OS [1] = assay: drug sensitivity score (DSS) for viability; higher = more toxic; extreme values may be limits of the assay
Vero E6 [2] = assay: as above
Calu-3 [3] = assay: as above
Caco-2 [4] = assay: as above
U2OS [5] = assay: relative viability EC50 (midpoint between 100% and the lowest measured viability); higher = less toxic
Vero E6 [6] = assay: as above
Calu-3 [7] = assay: as above
Caco-2 [8] = assay: as above
U2OS [9] = assay: cell viability relative to DMSO; higher = less toxic
Vero E6 [10] = assay: as above
Calu-3 [11] = assay: as above
Caco-2 [12] = assay: as above
HepG2 [13] = assay: drug sensitivity score (DSS) for viability; higher = more toxic; extreme values may be limits of the assay
HepG2 [14] = assay: cell viability relative to DMSO; higher = less toxic

Row | Compound | drug sensitivity score (U2OS [1]) | drug sensitivity score (Vero E6 [2]) | drug sensitivity score (Calu-3 [3]) | drug sensitivity score (Caco-2 [4]) | relative viability EC50 (U2OS [5]) | relative viability EC50 (Vero E6 [6]) | relative viability EC50 (Calu-3 [7]) | relative viability EC50 (Caco-2 [8]) | cell viability (U2OS [9]; 1 nM) | cell viability (U2OS [9]; 10 nM) | cell viability (U2OS [9]; 100 nM) | cell viability (U2OS [9]; 1000 nM) | cell viability (U2OS [9]; 10000 nM) | cell viability (Vero E6 [10]; 1 nM) | cell viability (Vero E6 [10]; 10 nM) | cell viability (Vero E6 [10]; 100 nM) | cell viability (Vero E6 [10]; 1000 nM) | cell viability (Vero E6 [10]; 10000 nM) | cell viability (Calu-3 [11]; 1 nM) | cell viability (Calu-3 [11]; 10 nM) | cell viability (Calu-3 [11]; 100 nM) | cell viability (Calu-3 [11]; 1000 nM) | cell viability (Calu-3 [11]; 10000 nM) | cell viability (Caco-2 [12]; 1 nM) | cell viability (Caco-2 [12]; 10 nM) | cell viability (Caco-2 [12]; 100 nM) | cell viability (Caco-2 [12]; 1000 nM) | cell viability (Caco-2 [12]; 10000 nM) | drug sensitivity score (HepG2 [13]) | cell viability (HepG2 [14]; 1 nM) | cell viability (HepG2 [14]; 10 nM) | cell viability (HepG2 [14]; 100 nM) | cell viability (HepG2 [14]; 1000 nM) | cell viability (HepG2 [14]; 10000 nM)
1 | N#Cc1c(O)c2c(-c3ccc(-c4ccccc4O)cc3)csc2[nH]c1=O | 0 | 0 | 0 | 0 | > 10 µM | > 10 µM | > 10 µM | > 10 µM | 103% | 108% | 99.8% | 106% | 99.1% | 105% | 101% | 97.3% | 95.4% | 99% | 94.3% | 94.8% | 96.7% | 95.5% | 104% | 97.8% | 102% | 95.2% | 98.8% | 96.5% |  |  |  |  |  | 
2 | O=C1NC(=O)c2c1c1c3ccccc3n3c1c1c2c2ccccc2n1C1CCC3O1 | 1.9 | 5.5 | 0 | 4 | > 10 µM |  | > 10 µM | > 10 µM | 99.8% | 99.3% | 91.1% | 86.8% | 80% | 98.5% | 94.7% | 95% | 71.7% | 75% | 104% | 92.6% | 96.4% | 92% | 95.9% | 101% | 96.2% | 92.9% | 76.9% | 80.7% | 7.8 | 100% | 99.9% | 98.8% | 57.8% | 56.5%
3 | c1ccc(-c2n[nH]c3c2oc2ccccc23)cc1 | 0 | 0 | 0 | 0 | > 10 µM | > 10 µM | > 10 µM | > 10 µM | 103% | 102% | 98.5% | 99.6% | 93.8% | 91% | 96.4% | 91.7% | 90.1% | 102% | 89.6% | 103% | 102% | 105% | 110% | 107% | 99.4% | 104% | 96.8% | 89.7% | 2.9 | 104% | 106% | 90.1% | 84% | 74.5%
4 | OC[C@H]1O[C@@H](O[C@@H]2[C@@H](CO)OC(O)(CO)[C@H]2O)[C@H](O)[C@@H](O)[C@H]1O (mixture of isomers) [lactulose] |  | 0 | 0 | 0 |  | > 10 µM | > 10 µM | > 10 µM |  |  |  |  |  | 94.1% | 97.7% | 89.1% | 94.6% | 110% | 107% | 112% | 99.1% | 104% | 101% | 100% | 98.2% | 101% | 104% | 106% |  |  |  |  |  | 
5 | OCCCCO [1,4-butanediol] | 0 | 0 | 0 | 0 | > 10 µM | > 10 µM | > 10 µM | > 10 µM | 101% | 108% | 96.8% | 111% | 97.8% | 102% | 102% | 100% | 104% | 93.1% | 89.2% | 98.4% | 89.4% | 94% | 93.7% | 98.6% | 112% | 119% | 107% | 102% | 0.7 | 90.8% | 97.9% | 95.7% | 105% | 74.4%
6 | C[C@@H](N)[C@@H](O)c1ccccc1 [1S,2R-phenylpropanolamine] |  | 0 | 0 | 0 |  | > 10 µM | > 10 µM | > 10 µM |  |  |  |  |  | 101% | 101% | 101% | 103% | 97.7% | 106% | 106% | 98.8% | 102% | 99.7% | 98.5% | 107% | 97.4% | 102% | 110% |  |  |  |  |  | 
7 | CCS(=O)(=O)N(Cc1cccnc1)c1cccc(-c2ccc(C#N)cc2)c1 [CBiPES] | 0 | 0.5 | 0 | 1.6 | > 10 µM | > 10 µM | > 10 µM | > 10 µM | 104% | 97.2% | 103% | 98.1% | 94.6% | 103% | 96.7% | 101% | 96.4% | 85.9% | 101% | 96.5% | 97.1% | 96.8% | 112% | 100% | 99.2% | 98.1% | 92.6% | 76.4% | 1.9 | 98.5% | 96.3% | 93.7% | 105% | 56.7%
8 | CC(C)NC[C@@H](C(=O)N1CCN(c2ncnc3c2[C@H](C)C[C@H]3O)CC1)c1ccc(Cl)cc1 [GDC-0068] | 0.3 | 0 | 4.3 | 3 | > 10 µM | > 10 µM |  |  | 105% | 100% | 101% | 96.8% | 87.2% | 105% | 102% | 100% | 101% | 93.2% | 101% | 108% | 89.9% | 80.8% | 56.7% | 107% | 107% | 96% | 83.2% | 69.1% | 1.3 | 109% | 115% | 108% | 98.9% | 71.4%
9 | CNC1CC(N)C(O)C(OC2OC(CO)C(O)C3OC4(OC(C(N)CO)C(O)C(O)C4O)OC23)C1O (stereo not drawn) [Hygromycin B] | 0 | 0 | 0 | 0 | > 10 µM | > 10 µM | > 10 µM | > 10 µM | 104% | 97.8% | 99% | 103% | 93.9% | 95.9% | 93.4% | 95.4% | 91.5% | 104% | 95.7% | 93.5% | 92.9% | 97.5% | 89.8% | 97.2% | 105% | 107% | 108% | 95.9% |  |  |  |  |  | 
10 | CN1c2cc3c(cc2N=C(c2ccc(C(=O)O)cc2)c2ccccc21)C(C)(C)CCC3(C)C [LE-135] | 2.5 | 1.7 | 0 | 3.6 |  | > 10 µM | > 10 µM |  | 101% | 106% | 100% | 97.8% | 57.2% | 99% | 102% | 98.2% | 87.3% | 78.7% | 108% | 108% | 91.2% | 102% | 98.5% | 88.8% | 100% | 101% | 89.7% | 60.1% | 2.4 | 85.1% | 104% | 86.8% | 87.6% | 74%
11 | CCCCCCOc1cc2c(cc1N(C)c1ncc(C(=O)O)cn1)C(C)(C)CCC2(C)C [PA-452] | 0 |  |  |  | > 10 µM |  |  |  | 97.7% | 92.8% | 97% | 101% | 103% |  |  |  |  |  |  |  |  |  |  |  |  |  |  |  |  |  |  |  |  | 
12 | CN1[C@@H]2C[C@@H](OC(=O)[C@H](CO)c3ccccc3)C[C@H]1[C@@H]1O[C@@H]12 [SCOPOLAMINE HYDROBROMIDE] | 0 | 0 | 0 |  | > 10 µM | > 10 µM | > 10 µM |  | 98% | 98.7% | 99.3% | 95.9% | 96.4% | 94.2% | 99% | 94.4% | 97.2% | 115% | 96.6% | 99.1% | 91.6% | 101% | 105% |  |  |  |  |  |  |  |  |  |  | 
13 | Cc1cc(Nc2cc(C)c(C#N)c(N[C@@H](C)CCCC(C)(C)O)n2)n[nH]1 [TC-A-2317] | 9.4 | 7.8 | 6.7 | 7.2 | 1.33 µM | 1.4 µM | 0.799 µM | 1.47 µM | 106% | 98.2% | 96.9% | 68.8% | 7.2% | 105% | 104% | 96.4% | 75.7% | 22% | 98% | 89.4% | 84.7% | 77.2% | 40.8% | 103% | 102% | 94% | 77.6% | 25.3% | 7.5 | 110% | 103% | 93.2% | 62.8% | 54.3%
14 | C=CCNc1nc(NCC=C)nc(N2CCN(C(c3ccc(F)cc3)c3ccc(F)cc3)CC2)n1 [almitrine] | 0 | 0.4 | 0 | 0.6 | > 10 µM | > 10 µM | > 10 µM | > 10 µM | 102% | 96.1% | 99.4% | 94.6% | 97.9% | 91.7% | 107% | 89.2% | 95.4% | 91.2% | 111% | 96.2% | 96.5% | 92% | 98.2% | 91.3% | 79.4% | 102% | 88.2% | 87.8% | 6.1 | 98.8% | 92.6% | 80.9% | 77.9% | 61%
15 | CCC(C)(C)c1ccc(CC(C)CN2C[C@@H](C)O[C@@H](C)C2)cc1 (stereo partly drawn) [amorolfine] |  |  | 0 | 2.5 |  |  | > 10 µM | > 10 µM |  |  |  |  |  |  |  |  |  |  | 93.8% | 109% | 92.9% | 100% | 94.7% | 86% | 114% | 91.8% | 84.8% | 76% |  |  |  |  |  | 
16 | COC(=O)C1=CCCN(C)C1 [arecoline] | 0 |  | 0.6 |  |  |  |  |  |  |  |  |  |  |  |  |  |  |  |  |  |  |  |  |  |  |  |  |  | 0 |  |  |  |  | 
17 | COC(=O)N[C@H](C(=O)N[C@@H](Cc1ccccc1)[C@@H](O)CN(Cc1ccc(-c2ccccn2)cc1)NC(=O)[C@@H](NC(=O)OC)C(C)(C)C)C(C)(C)C [atazanavir] | 0 | 0 | 0 | 2.3 | > 10 µM | > 10 µM | > 10 µM | > 10 µM | 111% | 97.1% | 102% | 94% | 99.1% | 96.3% | 102% | 90.2% | 99.6% | 112% | 99.3% | 99.7% | 91.4% | 91% | 97.1% | 90.5% | 112% | 92.9% | 84.8% | 80.1% |  |  |  |  |  | 
